“Also recorded” adds a separate entry of the source.
How the values were obtained:
[1] = molecular target: T1, yeast PDE2 (Saccharomyces cerevisiae, UniProt P06776); test: Phosphodiesterase activity assay, cell free extract of 10 DAB yeast expressing yeast PDE2; format: biochemical, S. cerevisiae
T1 construct: made in house; host or cells: S. cerevisiae strain 10 DAB (pde1- pde2-), cell free extract
Experimental: (§1) Yeast cells were grown at 30° C. for 36 hours in one liter cultures of synthetic media (SC-leucine). Cells were harvested and washed with buffer C ([…], 0.1 mM MgCl2, 0.1 mM EGTA, 1 mM β-mercaptoethanol), were resuspended in 30 ml buffer C with 50 μl 1M PMSF, and were disrupted with a French press. The extracts were centrifuged at 1,600 g for 10 min and the supernatants were spun at 18,000 g for 90 min (4° C.). The supernatant was assayed for phosphodiesterase activity (Sass, P., et al., Proc. Natl. Acad. Sci. USA 83:9303 (1986); Nikawa, J., et al., Mol. Cell. Biol. 7:3629 (1987)). All the reactions contained Tris-HCl (pH7.5) (100 mM), cell extract (50 μg protein/ml), 5′-nucleotidase (Sigma, 20 ng/ml) and 10 MM Mg^2+ (unless otherwise stated) and the indicated cyclic nucleotide concentrations. Assays for the cGMP hydrolysis used 1.5 μM cGMP. […] Reactions were incubated for 10 min at 30° C. and stopped with 5× stop solution (250 mM EDTA, 25 mM AMP, 100 mMcAMP).
This example illustrates the use of the genes and cells described in Example 1 to identify chemical compounds which inhibit the activity of a known enzyme, the rat DPD phosphodiesterase. To test the efficiency of known inhibitory compounds, cell free extracts were made as described in Phosphodiesterase Assays. Yeast cells deficient in endogenous phosphodiesterase (10 DAB), and expressing the rat DPD or yeast PDE2 genes from the described expression vector, were used. One liter cultures were harvested, washed in buffer C (20 mM MES/0.1 mM MgCl2/0.1 mM EGTA/1 mM 2-mercaptoethanol), resuspended in buffer C containing 1.5 mM phenylmethylsulfonyl fluoride, and disrupted in a French press at 4° C. Cell extracts were clarified at 100 g for 10 minutes and at 18000 g for 90 minutes. […] About 10^4 cpm were obtained for 10 minutes reactions and backgrounds (phosphodiesterase deficient-yeast or no extract) were about 300 cpm. The cytosolic fraction was assayed in the presence or absence of inhibitory compounds. […] The percent inhibition represents the decrease in phosphodiesterase activity relative to measurements made in the absence of inhibitors.

[2] = molecular target: T2, rat DPD phosphodiesterase (Rattus norvegicus, UniProt P14646); test: Phosphodiesterase activity assay, cell free extract of 10 DAB yeast expressing rat DPD; format: biochemical; conditions: for Inhibition (%): DPD-1 extract
T2 construct: A large open reading frame of 562 codons was found; The first ATG appears at codon 46; made in house; host or cells: S. cerevisiae strain 10 DAB (pde1- pde2-) transformed with pADPD, cell free extract
T2 sequence (P14646 220-736): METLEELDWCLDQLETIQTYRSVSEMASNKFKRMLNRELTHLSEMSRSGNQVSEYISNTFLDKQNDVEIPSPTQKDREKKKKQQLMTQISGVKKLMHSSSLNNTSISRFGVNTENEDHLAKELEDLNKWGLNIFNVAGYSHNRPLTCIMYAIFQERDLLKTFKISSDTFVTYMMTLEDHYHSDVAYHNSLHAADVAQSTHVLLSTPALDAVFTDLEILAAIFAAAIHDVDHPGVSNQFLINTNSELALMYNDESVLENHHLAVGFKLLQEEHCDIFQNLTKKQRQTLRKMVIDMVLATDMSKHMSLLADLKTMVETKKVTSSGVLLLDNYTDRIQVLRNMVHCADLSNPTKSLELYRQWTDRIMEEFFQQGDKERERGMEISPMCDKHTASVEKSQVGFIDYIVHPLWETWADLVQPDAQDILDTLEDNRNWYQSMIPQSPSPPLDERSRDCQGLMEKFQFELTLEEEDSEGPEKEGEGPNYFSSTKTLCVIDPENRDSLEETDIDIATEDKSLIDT
Experimental: In order to analyse the biochemical properties of the DPD gene product, crude cell extracts were prepared from one liter cultures of 10 DAB which had been transformed with either pADNS or pADPD.
as §1
This example illustrates the use of the genes and cells described in Example 1 to identify chemical compounds which inhibit the activity of a known enzyme, the rat DPD phosphodiesterase. To test the efficiency of known inhibitory compounds, cell free extracts were made as described in Phosphodiesterase Assays. Yeast cells deficient in endogenous phosphodiesterase (10 DAB), and expressing the rat DPD or yeast PDE2 genes from the described expression vector, were used. One liter cultures were harvested, washed in buffer C (20 mM MES/0.1 mM MgCl2/0.1 mM EGTA/1 mM 2-mercaptoethanol), resuspended in buffer C containing 1.5 mM phenylmethylsulfonyl fluoride, and disrupted in a French press at 4° C. Cell extracts were clarified at 100 g for 10 minutes and at 18000 g for 90 minutes. […] The cytosolic fraction was assayed in the presence or absence of inhibitory compounds. […] The percent inhibition represents the decrease in phosphodiesterase activity relative to measurements made in the absence of inhibitors.

[3] = test system: 10 DAB cells expressing DPD; test: Heat shock survival of 10 DAB yeast cells expressing DPD; format: cell-based, S. cerevisiae; conditions: 100 μM, 40 minutes pretreatment, heat shock 50° C. 30 minutes
From the text: This example illustrates the use of the genes and methods described to identify chemical compounds which inhibit the function of the encoded mammalian proteins expressed in yeast, even when the function of that protein is not known. 10DAB cells, which are phosphodiesterase deficient, are sensitive to heat shock. As already discussed, when these cells express DPD, they become resistant to heat shock. […] 10 DAB cells expressing DPD were maintained in rich medium (YPD) for three days at stationary phase. […] Control cultures were not treated with any inhibitor. These cultures were then heat shocked in glass tubes at 50° C. for 30 minutes. One microliter of each culture was plated.

T1 sequence (P06776 whole entry): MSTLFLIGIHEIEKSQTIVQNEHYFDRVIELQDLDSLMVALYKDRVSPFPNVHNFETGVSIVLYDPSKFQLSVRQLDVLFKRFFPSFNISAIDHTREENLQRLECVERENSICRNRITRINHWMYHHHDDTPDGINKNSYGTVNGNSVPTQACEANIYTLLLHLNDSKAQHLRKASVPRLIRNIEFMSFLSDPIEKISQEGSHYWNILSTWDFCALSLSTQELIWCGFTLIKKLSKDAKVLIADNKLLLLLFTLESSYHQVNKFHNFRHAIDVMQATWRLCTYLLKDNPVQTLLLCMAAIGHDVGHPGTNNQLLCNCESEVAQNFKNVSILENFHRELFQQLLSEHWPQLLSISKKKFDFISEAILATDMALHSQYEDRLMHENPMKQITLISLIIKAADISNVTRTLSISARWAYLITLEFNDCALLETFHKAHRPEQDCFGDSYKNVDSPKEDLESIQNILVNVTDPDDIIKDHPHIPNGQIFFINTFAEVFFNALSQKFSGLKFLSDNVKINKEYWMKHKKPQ

In the case of `CC(C)Cn1c(=O)n(C)c(=O)c2[nH]cnc21` [IBMX], the “Inhibition (%)” value ([1]; agent 250 μM) is reported as 0.0% and the “Inhibition (%)” value ([2]; agent 250 μM) is reported as 87. %.
In the case of `CCCCOc1cc(CC2CNC(=O)N2)ccc1OC` (stereo not drawn) [R020 1724], the “Inhibition (%)” value ([1]; agent 100 μM) is reported as 3.0%, the “Inhibition (%)” value ([2]; agent 0.1 μM) is reported as 35. % and the “Inhibition (%)” value ([2]; agent 1.0 μM) is reported as 52. %. The “Inhibition (%)” value ([2]; agent 10.0 μM) was 79. %, the “Inhibition (%)” value ([2]; agent 100.0 μM) was 92. % and the “Inhibition of enzymatic activity of the rat DPD gene product (in words)” value ([2]; cell extract, summary of Example 3) was “most effective inhibitors of DPD activity; also recorded: inhibited”.
`COc1ccc(C2CNC(=O)C2)cc1OC1CCCC1` (stereo not drawn) [Rolipram] was tested, and the inhibition at 100 µM ([1]; agent 100 μM) was 0% and the “Heat shock sensitivity after treatment (inhibition of DPD function)” value [3] was “much more sensitive to heat shock; also recorded: suppression of heat shock resistance”.
Work on `Cn1c(=O)c2[nH]cnc2n(C)c1=O` [Theophylline] yielded an inhibition at 250 µM ([1]; agent 250 μM) of 0%.
For `Nc1nc2c(ncn2[C@@H]2O[C@@H]3COP(=O)(O)O[C@H]3[C@H]2O)c(=O)[nH]1` [cGMP], the “Inhibition of cAMP phosphodiesterase activity by cGMP” value ([2]; 5 μM cAMP, cGMP 100 fold over substrate (up to 500 μM)) was “unable to inhibit”.

From US20040086900A1, “Cloning of mammalian genes in microbial organisms and methods for pharmacological screening” (priority 1990, published 2004)
